Literature values, collected in publication PMC9817006 (Journal of psychopharmacology (Oxford, England), 2022).

Tests used:
[1] = systemic administration; ref Rueter et al., 2006; cited from earlier work
[2] = test system: C57BL/6J mice; conditions: low and high doses, ref Akinola et al., 2019; cited from earlier work
[3] = test system: rats; conditions: ref Freitas et al., 2016; cited from earlier work

c1cncc(OC[C@@H]2CCN2)c1 [A-85380]
Antinociception and anti-allodynic activity (in words) [1]: showing efficacy in multiple in vivo assays of antinociception, and anti-allodynic activity after systemic administration

CN1CCC[C@H]1c1cccnc1 [nicotine]
Locomotor sensitization (in words) [2]: lack of locomotor sensitization

dihydro-ß-erythroidine [DHßE]
Effect on 5IA-facilitated ICSS (in words) [3]: blocked
